From patent US20230146239A1 (THE SCRIPPS RESEARCH INSTITUTE, priority 2020, published 2023)
≈ marks a conversion by molar mass, not a printed value.

Assays:
Assay in all cases: In vitro antimicrobial microdilution assay (MIC)
VanA E. faecium (TX2465) = type: cell-based, Enterococcus faecium
Excerpt: (§1) The lowest concentration of antibiotic (in μg/mL) capable of eliminating cell growth in the wells is the reported MIC value.

[1] = system: VanA E. faecalis (ATCC BAA-2573); type: cell-based, Enterococcus faecalis
Excerpt: as §1

[2] = system: VanA E. faecalis (BM 4166); type: cell-based, Enterococcus faecalis
Excerpt: as §1

[3] = system: VanA E. faecium (ATCC BAA-2317); type: cell-based, Enterococcus faecium
Excerpt: as §1

CN[C@H](CC(C)C)C(=O)N[C@H]1C(=O)N[C@@H](CC(N)=O)C(=O)N[C@H]2C(=O)NC3C(=O)N[C@H](C(=O)N[C@H](C(=O)NCCNC(=N)N)c4cc(O)cc(O)c4-c4cc3ccc4O)[C@H](O)c3ccc(c(Cl)c3)Oc3cc2cc(c3OC2OC(CO)C(O)[C@H](O)[C@@H]2O[C@H]2CC(C)(N)[C@H](O)[C@H](C)O2)Oc2ccc(cc2Cl)[C@H]1O (some centres unmarked) [Compound 6, G2-vancomycin]
MIC, VanA E. faecium TX2465 (VanA E. faecium (TX2465)): 16 µg/mL (≈ 10.4 µM) | MIC, VanA E. faecalis ATCC BAA-2573 [1]: 8 µg/mL (≈ 5.22 µM) | MIC, VanA E. faecalis BM 4166 [2]: 16 µg/mL (≈ 10.4 µM) | MIC, VanA E. faecium ATCC BAA-2317 [3]: 4 µg/mL (≈ 2.61 µM)

CN[C@H](CC(C)C)C(=O)N[C@H]1C(=O)N[C@@H](CC(N)=O)C(=O)N[C@H]2C(=O)NC3C(=O)N[C@H](C(=O)N[C@H](C(=O)NCCCCNC(=N)N)c4cc(O)cc(O)c4-c4cc3ccc4O)[C@H](O)c3ccc(c(Cl)c3)Oc3cc2cc(c3OC2OC(CO)C(O)[C@H](O)[C@@H]2O[C@H]2CC(C)(N)[C@H](O)[C@H](C)O2)Oc2ccc(cc2Cl)[C@H]1O (some centres unmarked) [Compound 7, G4-vancomycin]
MIC, VanA E. faecium TX2465 (VanA E. faecium (TX2465)): 16 µg/mL (≈ 10.2 µM) | MIC, VanA E. faecalis ATCC BAA-2573 [1]: 4 µg/mL (≈ 2.56 µM) | MIC, VanA E. faecalis BM 4166 [2]: 16 µg/mL (≈ 10.2 µM) | MIC, VanA E. faecium ATCC BAA-2317 [3]: 4 µg/mL (≈ 2.56 µM)

CN[C@H](CC(C)C)C(=O)N[C@H]1C(=O)N[C@@H](CC(N)=O)C(=O)N[C@H]2C(=O)NC3C(=O)N[C@H](C(=O)N[C@H](C(=O)NCCCCCCNC(=N)N)c4cc(O)cc(O)c4-c4cc3ccc4O)[C@H](O)c3ccc(c(Cl)c3)Oc3cc2cc(c3OC2OC(CO)C(O)[C@H](O)[C@@H]2O[C@H]2CC(C)(N)[C@H](O)[C@H](C)O2)Oc2ccc(cc2Cl)[C@H]1O (some centres unmarked) [Compound 8, G6-vancomycin]
MIC, VanA E. faecium TX2465 (VanA E. faecium (TX2465)): 16 µg/mL (≈ 10.1 µM) | MIC, VanA E. faecalis ATCC BAA-2573 [1]: 4 µg/mL (≈ 2.52 µM) | MIC, VanA E. faecalis BM 4166 [2]: 16 µg/mL (≈ 10.1 µM) | MIC, VanA E. faecium ATCC BAA-2317 [3]: 4 µg/mL (≈ 2.52 µM)

CN[C@H](CC(C)C)C(=O)N[C@H]1C(=O)N[C@@H](CC(N)=O)C(=O)N[C@H]2C(=O)NC3C(=O)N[C@H](C(=O)N[C@H](C(=O)N[C@@H](CCCNC(=N)N)C(=O)OC)c4cc(O)cc(O)c4-c4cc3ccc4O)[C@H](O)c3ccc(c(Cl)c3)Oc3cc2cc(c3OC2OC(CO)C(O)[C@H](O)[C@@H]2O[C@H]2CC(C)(N)[C@H](O)[C@H](C)O2)Oc2ccc(cc2Cl)[C@H]1O (some centres unmarked) [Compound 10, Arg(OMe)-vancomycin]
MIC, VanA E. faecium TX2465 (VanA E. faecium (TX2465)): 8 µg/mL (≈ 4.94 µM) | MIC, VanA E. faecalis ATCC BAA-2573 [1]: 4 µg/mL (≈ 2.47 µM) | MIC, VanA E. faecalis BM 4166 [2]: 8 µg/mL (≈ 4.94 µM) | MIC, VanA E. faecium ATCC BAA-2317 [3]: 8 µg/mL (≈ 4.94 µM)

CN[C@H](CC(C)C)C(=O)N[C@H]1C(=O)N[C@@H](CC(N)=O)C(=O)N[C@H]2C(=O)N[C@H]3C(=O)N[C@H](C(=O)N[C@H](C(=O)N[C@@H](CCCNC(=N)N)C(=O)O)c4cc(O)cc(O)c4-c4cc3ccc4O)[C@H](O)c3ccc(c(Cl)c3)Oc3cc2cc(c3OC2OC(CO)C(O)[C@H](O)C2O[C@H]2CC(C)(N)[C@H](O)[C@H](C)O2)Oc2ccc(cc2Cl)[C@H]1O (some centres unmarked) [Compound 11, Arg-vancomycin]
MIC ([2]; Enterococcus faecalis, read-out: MIC, VanA E. faecalis BM 4166): 63 µg/mL (≈ 39.2 µM) | MIC ([3]; Enterococcus faecium, ATCCBAA2317, read-out: MIC, VanA E. faecium ATCC BAA-2317): 63 µg/mL (≈ 39.2 µM)

CN[C@H](CC(C)C)C(=O)N[C@H]1C(=O)N[C@@H](CC(N)=O)C(=O)N[C@H]2C(=O)NC3C(=O)N[C@H](C(=O)N[C@H](C(=O)N[C@@H](CCCNC(=N)N)C(N)=O)c4cc(O)cc(O)c4-c4cc3ccc4O)[C@H](O)c3ccc(c(Cl)c3)Oc3cc2cc(c3OC2OC(CO)C(O)[C@H](O)[C@@H]2O[C@H]2CC(C)(N)[C@H](O)[C@H](C)O2)Oc2ccc(cc2Cl)[C@H]1O (some centres unmarked) [Compound 12, Arg(NH2)-vancomycin]
MIC, VanA E. faecium TX2465 (VanA E. faecium (TX2465)): 8 µg/mL (≈ 4.99 µM) | MIC, VanA E. faecalis ATCC BAA-2573 [1]: 4 µg/mL (≈ 2.49 µM) | MIC, VanA E. faecalis BM 4166 [2]: 16 µg/mL (≈ 9.97 µM) | MIC, VanA E. faecium ATCC BAA-2317 [3]: 4 µg/mL (≈ 2.49 µM)

CN[C@H](CC(C)C)C(=O)N[C@H]1C(=O)N[C@@H](CC(N)=O)C(=O)N[C@H]2C(=O)NC3C(=O)N[C@H](C(=O)N[C@H](C(=O)N[C@@H](CCCNC(N)=O)C(=O)OC)c4cc(O)cc(O)c4-c4cc3ccc4O)[C@H](O)c3ccc(c(Cl)c3)Oc3cc2cc(c3OC2OC(CO)C(O)[C@H](O)[C@@H]2O[C@H]2CC(C)(N)[C@H](O)[C@H](C)O2)Oc2ccc(cc2Cl)[C@H]1O (some centres unmarked) [Compound 13, Cit(OMe)-vancomycin]
MIC, VanA E. faecium TX2465 (VanA E. faecium (TX2465)): 63 µg/mL (≈ 38.9 µM) | MIC, VanA E. faecalis ATCC BAA-2573 [1]: 16 µg/mL (≈ 9.87 µM) | MIC, VanA E. faecalis BM 4166 [2]: 63 µg/mL (≈ 38.9 µM) | MIC, VanA E. faecium ATCC BAA-2317 [3]: 31 µg/mL (≈ 19.1 µM)
